Measurements published in patent US11981686B2, “Urea compound having substituent” (DAIICHI SANKYO COMPANY, LIMITED, priority 2019, dated 2024).

Target: SIRT6 enzyme (Homo sapiens, UniProt Q8N6T7)
Assay: Measurement of deacetylation activity (SIRT6, AlphaLISA, H3K9(Ac) peptide)
Assay type: biochemical
Conditions: SIRT6 25 ng/mL, H3K9(Ac) biotin peptide 2 nM, NAD 10 μM, room temperature 30 minutes, duplicate
Procedure, shortened: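 Activation read as EC150, the concentration giving 150% activity relative to enzyme/no-enzyme DMSO controls, via variable-slope fit. Deacetylation of 2 nM biotinylated H3K9(Ac) peptide with 10 μM NAD+ by 25 ng/mL SIRT6 ran 30 min at room temperature, pH 8.0, then AlphaLISA detection of unmodified H3K9.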

Chain of SIRT6 enzyme (Q8N6T7 whole entry, species assumed): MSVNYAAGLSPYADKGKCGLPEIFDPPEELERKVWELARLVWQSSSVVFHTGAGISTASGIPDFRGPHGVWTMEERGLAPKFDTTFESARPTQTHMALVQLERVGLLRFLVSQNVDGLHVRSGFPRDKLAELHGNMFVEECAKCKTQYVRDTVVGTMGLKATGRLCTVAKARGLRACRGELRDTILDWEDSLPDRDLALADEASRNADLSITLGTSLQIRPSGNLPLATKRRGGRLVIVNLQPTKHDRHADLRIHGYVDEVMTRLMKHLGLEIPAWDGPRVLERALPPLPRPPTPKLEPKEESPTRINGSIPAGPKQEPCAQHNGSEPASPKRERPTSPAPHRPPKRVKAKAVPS

In the case of `CC(C)CNC(=O)Nc1nc2c(s1)[C@@H]1COC[C@H](C2)N1c1nc2cc(S(C)(=O)=O)ccc2o1` [Example 43, N-{(4S,8S)-10-[5-(methanesulfonyl)-1,3-benzoxazol-2-yl]-4,7,8,9-tetrahydro-5H-4,8-epiminooxocino[5,4-d][1,3]thiazol-2-yl}-N′-(2-methylpropyl)urea], the “EC150 (the concentration of the compound showing a relative enzyme activity of 150%)” value is reported as 1.5 μm.

For `CC(C)(CO)NC(=O)Nc1nc2c(s1)[C@@H]1COC[C@H](C2)N1c1nc(-c2ccc(F)cc2)no1` [Example 90, N-{(4S,8S)-10-[3-(4-fluorophenyl)-1,2,4-oxadiazol-5-yl]-4,7,8,9-tetrahydro-5H-4,8-epiminooxocino[5,4-d][1,3]thiazol-2-yl}-N′-(1-hydroxy-2-methylpropan-2-yl)urea], the “EC150 (the concentration of the compound showing a relative enzyme activity of 150%)” value was 2.5 μm.

`CC(C)(O)CNC(=O)Nc1nc2c(s1)CN(c1nc(C3CCCC(F)(F)C3)no1)CC2` (stereo not drawn) [Example 28, N-{5-[3-(3,3-difluorocyclohexyl)-1,2,4-oxadiazol-5-yl]-4,5,6,7-tetrahydro[1,3]thiazolo[5,4-c]pyridin-2-yl}-N′-(2-hydroxy-2-methylpropyl)urea] was tested, and the “EC150 (the concentration of the compound showing a relative enzyme activity of 150%)” value was 2.1 μm.

For `C[C@H](CO)NC(=O)Nc1nc2c(s1)[C@@H]1COC[C@H](C2)N1c1nc2cc(F)ccc2o1` [Example 39, N-[(4S,8S)-10-(5-fluoro-1,3-benzoxazol-2-yl)-4,7,8,9-tetrahydro-5H-4,8-epiminooxocino[5,4-d][1,3]thiazol-2-yl]-N′-[(2R)-1-hydroxypropan-2-yl]urea], the “EC150 (the concentration of the compound showing a relative enzyme activity of 150%)” value was 2.5 μm.

`CNC(=O)Nc1nc2c(s1)[C@@H]1COC[C@H](C2)N1c1nc(-c2ccc(F)cc2)no1` (single isomer, unassigned) [Example 13] was tested, and the “EC150 (the concentration of the compound showing a relative enzyme activity of 150%)” value was 1.3 μm.

`CC(C)(O)CNC(=O)Nc1nc2c(s1)[C@@H]1COC[C@H](C2)N1c1nc2cc(F)c(F)cc2o1` [Example 146, N-[(4S,8S)-10-(5,6-difluoro-1,3-benzoxazol-2-yl)-4,7,8,9-tetrahydro-5H-4,8-epiminooxocino[5,4-d][1,3]thiazol-2-yl]-N′-(2-hydroxy-2-methylpropyl)urea] was tested, and the “EC150 (the concentration of the compound showing a relative enzyme activity of 150%)” value was 1.9 μm.

With `C[C@@H](CO)NC(=O)Nc1nc2c(s1)[C@@H]1COC[C@H](C2)N1c1ncc(-c2cccc(C(F)F)c2)o1` [Example 168, N-[(4S,8S)-10-{5-[3-(difluoromethyl)phenyl]-1,3-oxazol-2-yl}-4,7,8,9-tetrahydro-5H-4,8-epiminooxocino[5,4-d][1,3]thiazol-2-yl]-N′-[(2S)-1-hydroxypropan-2-yl]urea] the “EC150 (the concentration of the compound showing a relative enzyme activity of 150%)” value was 0.35 μm.

In the case of `CNC(=O)Nc1nc2c(s1)[C@H]1CN(C(=O)C(C)C)C[C@@H](C2)N1c1nc(-c2ccc(F)cc2)no1` [Example 125, N-[(4R,8R)-10-[3-(4-fluorophenyl)-1,2,4-oxadiazol-5-yl]-6-(2-methylpropanoyl)-4,5,6,7,8,9-hexahydro-4,8-epimino[1,3]thiazolo[5,4-d]azocin-2-yl]-N′-methylurea], the “EC150 (the concentration of the compound showing a relative enzyme activity of 150%)” value is reported as 2.4 μm.

For `COc1cc2nc(N3[C@@H]4COC[C@H]3c3sc(NC(=O)N[C@@H]5CCOC5)nc3C4)oc2cc1C` [Example 45, N-[(4S,8S)-10-(5-methoxy-6-methyl-1,3-benzoxazol-2-yl)-4,7,8,9-tetrahydro-5H-4,8-epiminooxocino[5,4-d][1,3]thiazol-2-yl]-N′-[(3R)-oxolan-3-yl]urea], the “EC150 (the concentration of the compound showing a relative enzyme activity of 150%)” value was 0.79 μm.

In the case of `C[C@H](CO)NC(=O)Nc1nc2c(s1)[C@@H]1COC[C@H](C2)N1c1ncc(-c2cccc(OC(F)F)n2)o1` [Example 66, N-[(4S,8S)-10-{5-[6-(difluoromethoxy)pyridin-2-yl]-1,3-oxazol-2-yl}-4,7,8,9-tetrahydro-5H-4,8-epiminooxocino[5,4-d][1,3]thiazol-2-yl]-N′-[(2R)-1-hydroxypropan-2-yl]urea], the “EC150 (the concentration of the compound showing a relative enzyme activity of 150%)” value is reported as 0.39 μm.

`CNC(=O)Nc1nc2c(s1)C1COCC(C2)N1c1nnc(-c2cccc(C(F)F)c2)o1` (stereo not drawn) [Example 109, N-(10-{5-[3-(difluoromethyl)phenyl]-1,3,4-oxadiazol-2-yl}-4,7,8,9-tetrahydro-5H-4,8-epiminooxocino[5,4-d][1,3]thiazol-2-yl)-N′-methylurea] was tested, and the “EC150 (the concentration of the compound showing a relative enzyme activity of 150%)” value was 1.4 μm.

With `COc1ccc2oc(N3CCc4nc(NC(=O)N[C@H](C)CO)sc4C3)nc2c1` [Example 189, N-[(2R)-1-hydroxypropan-2-yl]-N′-[5-(5-methoxy-1,3-benzoxazol-2-yl)-4,5,6,7-tetrahydro[1,3]thiazolo[5,4-c]pyridin-2-yl]urea] the “EC150 (the concentration of the compound showing a relative enzyme activity of 150%)” value was 0.38 μm.

`CC(C)(O)CNC(=O)Nc1nc2c(s1)[C@@H]1COC[C@H](C2)N1c1nc2cc(C(F)(F)F)ccc2o1` [Example 144, N-(2-hydroxy-2-methylpropyl)-N′-{(4S,8S)-10-[5-(trifluoromethyl)-1,3-benzoxazol-2-yl]-4,7,8,9-tetrahydro-5H-4,8-epiminooxocino[5,4-d][1,3]thiazol-2-yl}urea] was tested, and the “EC150 (the concentration of the compound showing a relative enzyme activity of 150%)” value was 0.61 μm.

In the case of `C[C@H](CO)NC(=O)Nc1nc2c(s1)[C@@H]1COC[C@H](C2)N1c1nc2cc(C(F)F)ccc2o1` [Example 56, N-{(4S,8S)-10-[5-(difluoromethyl)-1,3-benzoxazol-2-yl]-4,7,8,9-tetrahydro-5H-4,8-epiminooxocino[5,4-d][1,3]thiazol-2-yl}-N′-[(2R)-1-hydroxypropan-2-yl]urea], the “EC150 (the concentration of the compound showing a relative enzyme activity of 150%)” value is reported as 0.19 μm.

In the case of `COc1cc2nc(N3[C@@H]4COC[C@H]3c3sc(NC(=O)NCC(C)(C)O)nc3C4)oc2cc1C` [Example 44, N-(2-hydroxy-2-methylpropyl)-N′-[(4S,8S)-10-(5-methoxy-6-methyl-1,3-benzoxazol-2-yl)-4,7,8,9-tetrahydro-5H-4,8-epiminooxocino[5,4-d][1,3]thiazol-2-yl]urea], the “EC150 (the concentration of the compound showing a relative enzyme activity of 150%)” value is reported as 2.3 μm.

For `O=C(Nc1nc2c(s1)[C@@H]1COC[C@H](C2)N1c1ncc(-c2cccc(OC(F)F)c2)o1)N[C@H]1C[C@H](O)C1` [Example 167, N-[(4S,8S)-10-{5-[3-(difluoromethoxy)phenyl]-1,3-oxazol-2-yl}-4,7,8,9-tetrahydro-5H-4,8-epiminooxocino[5,4-d][1,3]thiazol-2-yl]-N′-[(1r,3S)-3-hydroxycyclobutyl]urea], the “EC150 (the concentration of the compound showing a relative enzyme activity of 150%)” value was 0.43 μm.

`COc1cccc(-c2cc(N3[C@@H]4COC[C@H]3c3sc(NC(=O)N[C@H]5CCOC5)nc3C4)no2)n1` [Example 162, N-{(4S,8S)-10-[5-(6-methoxypyridin-2-yl)-1,2-oxazol-3-yl]-4,7,8,9-tetrahydro-5H-4,8-epiminooxocino[5,4-d][1,3]thiazol-2-yl}-N′-[(3S)-oxolan-3-yl]urea] was tested, and the “EC150 (the concentration of the compound showing a relative enzyme activity of 150%)” value was 3.3 μm.

In the case of `CCOc1cccc(-c2cnc(N3[C@@H]4COC[C@H]3c3sc(NC(=O)NCC(C)(C)O)nc3C4)o2)n1` [Example 79, N-{(4S,8S)-10-[5-(6-ethoxypyridin-2-yl)-1,3-oxazol-2-yl]-4,7,8,9-tetrahydro-5H-4,8-epiminooxocino[5,4-d][1,3]thiazol-2-yl}-N′-(2-hydroxy-2-methylpropyl)urea], the “EC150 (the concentration of the compound showing a relative enzyme activity of 150%)” value is reported as 1.2 μm.

For `CNC(=O)Nc1nc2c(s1)[C@@H]1COC[C@H](C2)N1c1nnc(-c2cccc(OC)c2)o1` [Example 120, N-{(4S,8S)-10-[5-(3-methoxyphenyl)-1,3,4-oxadiazol-2-yl]-4,7,8,9-tetrahydro-5H-4,8-epiminooxocino[5,4-d][1,3]thiazol-2-yl}-N′-methylurea], the “EC150 (the concentration of the compound showing a relative enzyme activity of 150%)” value was 2.4 μm.

In the case of `COc1cccc(-c2cnc(N3[C@@H]4COC[C@H]3c3sc(NC(=O)N[C@H]5CC[C@@H](O)CC5)nc3C4)o2)n1` [Example 187, N-[(1s,4s)-4-hydroxycyclohexyl]-N′-{(4S,8S)-10-[5-(6-methoxypyridin-2-yl)-1,3-oxazol-2-yl]-4,7,8,9-tetrahydro-5H-4,8-epiminooxocino[5,4-d][1,3]thiazol-2-yl}urea], the “EC150 (the concentration of the compound showing a relative enzyme activity of 150%)” value is reported as 0.64 μm.

In the case of `CC(C)(O)CNC(=O)Nc1nc2c(s1)CN(c1nc3cc(S(C)(=O)=O)ccc3o1)C(C)(C)C2` [Example 75, N-(2-hydroxy-2-methylpropyl)-N′-{5-[5-(methanesulfonyl)-1,3-benzoxazol-2-yl]-6,6-dimethyl-4,5,6,7-tetrahydro[1,3]thiazolo[5,4-c]pyridin-2-yl}urea], the “EC150 (the concentration of the compound showing a relative enzyme activity of 150%)” value is reported as 0.94 μm.

`C[C@H]1NC(=O)N(c2nc3c(s2)[C@@H]2COC[C@H](C3)N2c2nc(-c3ccc(F)cc3)no2)C1=O` [Example 20, (5R)-3-{(4S,8S)-10-[3-(4-fluorophenyl)-1,2,4-oxadiazol-5-yl]-4,7,8,9-tetrahydro-5H-4,8-epiminooxocino[5,4-d][1,3]thiazol-2-yl}-5-methylimidazolidine-2,4-dione] was tested, and the “EC150 (the concentration of the compound showing a relative enzyme activity of 150%)” value was 2.6 μm.

`CNC(=O)Nc1nc2c(s1)[C@@H]1CC[C@H](C2)N1c1nc(-c2ccc(F)cc2)no1` (relative stereo) [Example 10, N-{(5R*,8S*)-9-[3-(4-fluorophenyl)-1,2,4-oxadiazol-5-yl]-5,6,7,8-tetrahydro-4H-5,8-epiminocyclohepta[d][1,3]thiazol-2-yl}-N′-methylurea] was tested, and the “EC150 (the concentration of the compound showing a relative enzyme activity of 150%)” value was 1.0 μm.

`CCO[C@H](C)c1nnc(N2CCc3nc(NC(=O)NC)sc3C2)o1` [Example 3, N-(5-{5-[(1R)-1-ethoxyethyl]-1,3,4-oxadiazol-2-yl}-4,5,6,7-tetrahydro[1,3]thiazolo[5,4-c]pyridin-2-yl)-N′-methylurea] was tested, and the “EC150 (the concentration of the compound showing a relative enzyme activity of 150%)” value was 3.4 μm.
